Laboratory results reported in US11267795B2, “Crystalline PPAR-delta agonist” (Reneo Pharmaceuticals, Inc., priority 2020, dated 2022).

Assays:
[1] = test system: PPARS regulated genes (CPT1b, PGC-1α) in mice muscle; test: In vivo expression of PPARδ regulated genes in mice muscle
[2] = test system: Angiopoietin-like 4 (ANGPTL4); test: In vivo expression of PPAR target gene in rat muscle
LXRα = biological target: T1, LXRα (Homo sapiens, UniProt Q13133); test: Nuclear receptor activation in human cells expressing the receptor; type: cell-based
T1 sequence (Q13133 1-447): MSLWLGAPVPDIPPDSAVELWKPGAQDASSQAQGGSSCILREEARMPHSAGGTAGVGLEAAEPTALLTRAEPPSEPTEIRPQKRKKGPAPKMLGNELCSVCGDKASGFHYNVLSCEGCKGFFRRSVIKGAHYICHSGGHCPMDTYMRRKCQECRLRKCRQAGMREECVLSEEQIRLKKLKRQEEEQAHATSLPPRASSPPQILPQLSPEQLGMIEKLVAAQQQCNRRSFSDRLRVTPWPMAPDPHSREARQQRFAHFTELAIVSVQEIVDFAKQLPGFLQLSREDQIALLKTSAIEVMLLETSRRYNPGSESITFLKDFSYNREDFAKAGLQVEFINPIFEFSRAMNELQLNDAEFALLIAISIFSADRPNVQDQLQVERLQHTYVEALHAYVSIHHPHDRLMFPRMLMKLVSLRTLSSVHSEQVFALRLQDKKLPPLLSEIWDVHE

PPARδ = biological target: T2, PPARδ (Homo sapiens, UniProt Q03181); test: PPAR agonist activity in human cell lines expressing the three PPAR isotypes; type: cell-based
T2 sequence (Q03181 1-441): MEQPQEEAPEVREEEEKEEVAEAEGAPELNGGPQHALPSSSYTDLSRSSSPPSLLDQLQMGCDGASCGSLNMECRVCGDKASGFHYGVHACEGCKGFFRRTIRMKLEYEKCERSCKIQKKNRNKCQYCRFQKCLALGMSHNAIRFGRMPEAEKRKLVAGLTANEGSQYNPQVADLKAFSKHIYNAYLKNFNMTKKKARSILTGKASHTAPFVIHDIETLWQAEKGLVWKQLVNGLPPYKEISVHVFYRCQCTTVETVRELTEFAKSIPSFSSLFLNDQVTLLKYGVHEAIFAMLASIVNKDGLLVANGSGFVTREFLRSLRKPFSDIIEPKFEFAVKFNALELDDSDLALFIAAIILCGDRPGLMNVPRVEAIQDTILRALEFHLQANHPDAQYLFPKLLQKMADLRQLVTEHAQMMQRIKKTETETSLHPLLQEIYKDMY
Procedure: (§1) Compound I is a PPARS agonist that is useful in the methods of treatment described herein. In human cell lines expressing the three peroxisome proliferator-activated receptor (PPAR) isotypes, Compound I is a potent (EC50<100 nM) and selective human PPARS agonist (PPARα (EC50>10 μM) and PPARγ (EC50>10 μM)).

PPARγ = biological target: T3, PPARγ (Homo sapiens, UniProt P37231); test: as above; type: cell-based
T3 sequence (P37231 1-505): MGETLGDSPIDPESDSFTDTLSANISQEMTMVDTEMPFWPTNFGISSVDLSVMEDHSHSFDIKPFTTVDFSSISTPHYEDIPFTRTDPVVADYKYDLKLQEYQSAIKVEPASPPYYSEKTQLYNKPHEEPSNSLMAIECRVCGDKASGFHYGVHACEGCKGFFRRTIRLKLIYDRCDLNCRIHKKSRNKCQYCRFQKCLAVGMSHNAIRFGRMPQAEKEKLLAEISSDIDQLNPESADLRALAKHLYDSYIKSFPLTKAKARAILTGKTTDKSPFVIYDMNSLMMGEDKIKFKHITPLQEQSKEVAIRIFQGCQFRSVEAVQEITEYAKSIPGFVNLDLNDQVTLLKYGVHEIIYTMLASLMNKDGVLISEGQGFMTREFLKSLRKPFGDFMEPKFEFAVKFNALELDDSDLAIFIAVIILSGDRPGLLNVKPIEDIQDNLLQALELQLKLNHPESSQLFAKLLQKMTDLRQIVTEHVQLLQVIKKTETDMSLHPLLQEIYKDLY
Procedure: as §1

PPARα = biological target: T4, PPARα (Homo sapiens, UniProt Q07869); test: as above; type: cell-based
T4 sequence (Q07869 1-468): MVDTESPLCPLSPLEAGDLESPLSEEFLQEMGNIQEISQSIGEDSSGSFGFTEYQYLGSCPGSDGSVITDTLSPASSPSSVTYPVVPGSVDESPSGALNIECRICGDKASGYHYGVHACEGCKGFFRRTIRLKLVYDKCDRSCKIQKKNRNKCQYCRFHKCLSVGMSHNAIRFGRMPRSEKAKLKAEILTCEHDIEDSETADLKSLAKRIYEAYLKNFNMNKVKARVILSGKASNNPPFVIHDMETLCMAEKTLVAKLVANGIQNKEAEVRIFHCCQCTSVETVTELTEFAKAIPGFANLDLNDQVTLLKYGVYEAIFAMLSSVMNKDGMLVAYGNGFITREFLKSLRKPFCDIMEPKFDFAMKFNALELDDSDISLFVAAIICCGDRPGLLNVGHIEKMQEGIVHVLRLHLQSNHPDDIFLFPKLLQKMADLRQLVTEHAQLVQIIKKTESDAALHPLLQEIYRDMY
Procedure: as §1

FXR = biological target: T5, FXR (Homo sapiens, UniProt Q96RI1); test: Nuclear receptor activation in human cells expressing the receptor; type: cell-based
T5 sequence (Q96RI1 1-486): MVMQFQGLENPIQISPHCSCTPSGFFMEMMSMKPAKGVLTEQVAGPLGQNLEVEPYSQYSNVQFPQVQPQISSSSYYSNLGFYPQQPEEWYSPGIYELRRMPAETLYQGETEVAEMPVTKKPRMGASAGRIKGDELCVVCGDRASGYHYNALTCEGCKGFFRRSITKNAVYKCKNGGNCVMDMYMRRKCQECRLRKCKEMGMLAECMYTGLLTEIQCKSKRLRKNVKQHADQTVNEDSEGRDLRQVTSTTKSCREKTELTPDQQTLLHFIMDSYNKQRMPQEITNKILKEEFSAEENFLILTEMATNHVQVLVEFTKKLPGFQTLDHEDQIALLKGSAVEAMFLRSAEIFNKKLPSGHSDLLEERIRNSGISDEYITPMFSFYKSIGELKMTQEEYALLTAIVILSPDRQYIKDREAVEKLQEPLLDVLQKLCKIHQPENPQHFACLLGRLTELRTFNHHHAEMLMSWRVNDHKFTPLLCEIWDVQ

RXR = test: as above; type: cell-based
LXRP = biological target: T6, LXRP (Homo sapiens, UniProt P55055); test: as above; type: cell-based
T6 sequence (P55055 1-460): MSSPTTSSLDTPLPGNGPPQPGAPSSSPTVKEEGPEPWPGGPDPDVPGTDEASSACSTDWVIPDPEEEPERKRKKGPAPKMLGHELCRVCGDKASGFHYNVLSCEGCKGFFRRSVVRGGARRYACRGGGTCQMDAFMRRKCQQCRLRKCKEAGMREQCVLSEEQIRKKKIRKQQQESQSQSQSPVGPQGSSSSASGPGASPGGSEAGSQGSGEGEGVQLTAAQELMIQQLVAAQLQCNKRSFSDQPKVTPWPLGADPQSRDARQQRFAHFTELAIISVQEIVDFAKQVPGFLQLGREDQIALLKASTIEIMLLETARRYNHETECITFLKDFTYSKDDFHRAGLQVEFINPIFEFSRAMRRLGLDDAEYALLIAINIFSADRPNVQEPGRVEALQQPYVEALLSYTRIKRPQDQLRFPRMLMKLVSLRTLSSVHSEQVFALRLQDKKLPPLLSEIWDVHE

[3] = human cell lines expressing the PPAR isotypes

activation of nuclear receptor LXRα (LXRα): has not resulted in activation | type of agonism at PPARδ (PPARδ): full PPARS agonist | EC50 (PPARδ; [3]): < 100 nM | type of agonism at PPARγ (PPARγ): partial agonist | EC50 (PPARγ; [3]): > 10 µM | type of agonism at PPARα (PPARα): partial agonist | EC50 (PPARα; [3]): > 10 µM | activation of nuclear receptor FXR (FXR): has not resulted in activation | activation of nuclear receptor LXRP (LXRP): has not resulted in activation
SMILES: Cc1cc(OC/C=C(/c2ccc(F)cc2)c2ccc(C#CCN3CCOCC3)cc2)ccc1OCC(=O)O [Compound I, (E)-2-(4-((3-(4-fluorophenyl)-3-(4-(3-morpholinoprop-1-yn-1-yl)phenyl)allyl)oxy)-2-methylphenoxy)acetic acid]
expression of PPARδ regulated genes (CPT1b, PGC-1α) [1]: altered the expression patterns | expression of Angiopoietin-like 4 (ANGPTL4) [2]: increased the expression | activation of nuclear receptor RXR (RXR): has not resulted in activation
